Results as given in patent US20250248393A1, “METHOD OF RELEASING A SEMIOCHEMICAL IN THE ENVIRONEMENT BY PASSIVE DIFFUSION, SYSTEM AND MEANS, ESPECIALLY STICKS, TO THIS END, AND USES THEREOF” (SIGNS, priority 2024, published 2025).

How the values were obtained:
Assay type in all cases: physicochemical
[1] = Mass loss of PCDS diffuser with isopropyl myristate as solvent; conditions: 2% F3 in isopropyl myristate, 170 grams, over 14 days
Experimental: The first step in solvent validation consists in preparing a device comprising a glass bottle containing a 2% solution of a known pheromone (feline facial pheromone F3) in isopropyl myristate (also termed Myristic acid isopropyl ester, IUPAC name Propan-2-yl tetradecanoate). The initial weight of solution placed in the bottle is 170 grams. Monitoring is carried out over 14 days, with weighing at DO, D7 and D14.

[2] = DAP PCDS direct diffusion (SPME-GC/MS); conditions: DAP/PCDS diffuser, 40 mL, 6 capillaries
Experimental: Three diffusers, each containing 40 mL of solution and 6 capillaries, were prepared and diffused. The first points were measured at T=1d, T=2, and T=3d, then every Monday, Wednesday and Friday of each study week until the diffusers no longer contained any solution. To measure the pheromone released into the air at each study time, the diffuser is first weighed (with the sticks) to measure mass loss, then placed in an enclosed area (in this case, an upside-down aquarium) containing a SPME fiber, as shown in FIG. 24.
The fiber is left to diffuse above the diffuser for 2 hours (a time determined in a previous method development as the optimum time for molecules to adsorb to the phase), then analyzed using the gas chromatography/mass spectrometry (GC/MS) technique.
Three diffusers were studied for greater accuracy. The chromatograms obtained are reprocessed using GC/MS Solution software.
For each chromatographic peak, the area is recorded using GC/MS Solution software, then entered into an Excel spreadsheet. Diffusion curves giving the area of the chromatographic peak corresponding to each active ingredient as a function of time are then plotted.
Analyses were carried out by gas chromatography/mass spectrometry (GC/MS). The instrument was a Shimadzu GCMS QP2010SE® equipped with an AOC 6000® autosampler. Separation was carried out on a ZB-FFAP® column (30 m×0.25 mm×0.25 μm, stationary phase: nitroterephthalic acid-modified polyethylene glycol) supplied by Phenomenex. The furnace temperature was initially set at 80° C. for 1 minute, then increased at 10° C./min to 240° C. and maintained at this temperature for 2 minutes. The carrier gas was helium at a flow rate of 1 mL/min. Analysis time is 19 minutes.
The injector is a split/splitless injector used in split mode (temperature: 250° C., split: 50:1). The SPME fiber was injected directly into the injector and left to desorb for 15 minutes.
The separated molecules were detected using a mass spectrometer equipped with an electron impact source (temperature: 200° C.). The analyzer is a simple quadrupole. The interface temperature is 250° C. Data were acquired in FASST mode (Fast automated SCAN/SIM type), i.e. part of the analysis was performed by scanning all ions (SCAN) and part by selecting specific ions (SIM). Target molecules were thus analyzed using ion selection.

[3] = Ratios of molecules diffused through the sticks over time
Experimental: Furthermore, as small molecules diffuse more, it happens that they lose intensity over the course of the study, so the ratios are different 24 hours after immersing the sticks in the liquid and 21 days later. Here are the ratios for each pheromone studied at the start of the study and at the end.

[4] = DAP quantification at the top of the capillaries (GC/FID); conditions: top of the rods
Experimental: For this study, three diffusers containing 40 mL of solution and 6 capillaries were used for diffusion. Each week, a diffuser was weighed and the pheromone contained in the liquid solution and on the top of the capillaries was quantified by gas chromatography with flame ionization detector (GC/FID). To quantify the pheromone at the top of the capillaries, approximately 1 cm of the top of the capillaries is cut off with scissors and 0.1 g of the capillary tops is placed in a 25 mL volumetric flask. Acetone is then added up to the beginning of the neck, and the flask is placed in an ultrasonic bath for one hour. Acetone is then topped up to volume, and an aliquot of solution is taken and filtered through a syringe filter for GC/FID analysis. DAP is then quantified by external calibration. For this, five solutions with concentrations ranging from 50% to 150% of the target value (100% being the target value) are prepared to cover a wide concentration range (protocol for preparing the standard range not shown but available). Analyses were carried out using gas chromatography with a flame ionization detector. The instrument was a Shimadzu GC 2025AF® equipped with an AOC20i® autosampler. Separation was carried out on a DB-WAX UI® column (20 m×0.18 mm×0.30 μm, polyethylene glycol (PEG) stationary phase) supplied by Agilent. The oven temperature was initially set at 90° C. and held for 2 minutes, then increased at 20° C./min to 160° C. and held at this temperature for 5 minutes. Finally, the temperature was increased at 20° C./min to 220° C. and held at this temperature for 5 minutes. The carrier gas is helium at a flow rate of 1 mL/min. Analysis time was thus 18.5 minutes. The injector is a split/splitless injector used in split mode (temperature: 230° C., split: 50:1, injected quantity: 1 μL). The detector is a flame ionization detector (FID). Its temperature is 240° C., the hydrogen flow rate is 40 mL/min and the air flow rate is 400 mL/min. A cleaning gas, dinitrogen, is also present at a flow rate of 30 mL/min.

[5] = F3P PCDS indirect diffusion, pheromone remaining in solution (GC/FID)
Experimental: For this study, three diffusers each containing 40 mL of product and 6 capillaries were prepared and diffused. Once a week, on Wednesdays, the amount of pheromone remaining in the solution was monitored by gas chromatography analysis coupled to a flame ionization detector (GC/FID) until no liquid remained. The percentage of pheromone was measured weekly.
Next, the percentage of pheromone was checked by external calibration using a GC/FID calibration range.
Analyses were carried out by gas chromatography coupled to a flame ionization detector. The instrument was a Shimadzu GC 2025® with an AOC20i® autosampler. Separation was performed on an Agilent DB-FFAP® column (30 m×0.25 mm×0.25 μm, stationary phase: nitroterephthalic acid-modified polyethylene glycol). The temperature of the gas chromatography oven was initially maintained at 140° C. for 2 minutes, then increased at 10° C./min to 250° C. and left at this temperature for 3 minutes. The carrier gas was helium at 1 mL/min. Analyses were performed in split mode using a split/splitless injector (temperature: 250° C., split: 1:50).
The detector used was a flame ionization detector. The detector temperature was 250° C. with an air flow rate of 400 mL/min, hydrogen 40 mL/min and nitrogen 30 mL/min.
For this purpose, a calibration range was prepared for each analysis. […]

[6] = Pheromone migrated to the stick tips (GC/FID); conditions: on stick tips, despecified pheromone
Experimental: In the course of this study, we also measured the amount of pheromone migrating on the sticks, to check that the pheromone had migrated to the top of the sticks, helping it to diffuse into the air. To do this, the test is the same as for the diffuser blocks: 2.5 g of stick tips are cut off and placed in a 50 mL flask, which is then placed in an ultrasonic bath for one hour. The resulting solution is filtered (to avoid injecting particles into the instrument) and placed in a chromatographic vial for analysis.

[7] = Direct diffusion of rod diffuser (SPME GC/MS); conditions: despecified pheromone 2%
Experimental: This is exactly the same analytical method used for the diffuser block study. The study setup is shown below, also with a two-hour adsorption time-See FIG. 12 showing the set-up. Because of the height of the passive diffusion device, the fiber mounting bracket will not be the same for the block and for the rod device. The distance between the fiber and the device is 10 cm. With the SPME method, results are evaluated by measuring the chromatographic peak area. The data have been plotted to produce a diffusion curve.

[8] = Direct diffusion of diffuser blocks (SPME GC/MS); conditions: despecified pheromone 2%, 4 weeks
Experimental: Analyses were carried out using gas chromatography (GC) coupled to a mass spectrometer (MS) detector, a technique commonly referred to as GCMS. The molecules of interest were extracted using the Solid Phase Micro-Extraction (SPME) technique. The instrument used was the following: QP2010SE® from Shimadzu (See FIG. 4).
AOC 6000® automatic feeder • Extraction/SPME fiber: polyacrylate/Fused silica (85 μm), 23 Ga. • Adsorption time: 2 hours (exposure time of fiber above block) (See FIG. 4) • Desorption time: 30 minutes (fiber exposure time in injector) • Fiber-block distance: 2 cm • Injection: split/splitless injector • Temperature: 250° C., split 50 mode. • Separation: ZB-FFAP® column (Phénomenex), length: 30 m, diameter: 250 μm, film thickness: […]
• Carrier gas: Helium (He) • Analysis time: 18 min (not including time to return to equilibrium between each analysis injection • Detection: mass spectrometer with electron impact source/analyzer: quadrupole. • Source temperature: 200° C. • Interface temperature: 250° C. • Scan m/z 50 to m/z 500 • SIM with ions 55, 66 and 74.
Analyses were carried out in triplicate to verify reproducibility of results.
With the SPME method, results are evaluated by measuring the chromatographic peak area. The data have been plotted on diffusion curve (see FIGS. 5 and 6).

[9] = Indirect assay of rod diffuser solution (GC/FID); conditions: stick diffuser solution, despecified pheromone
Experimental: Solution integrity was checked at each analysis time. Before each indirect assay, the vial was weighed to visualize mass loss over time. Each vial contained six sticks. • Specifications: the solution must lose mass over time. • Result: Compliant—See FIG. 9 This is the same analytical method as for the diffuser block study, only the sample preparation differs. 1.25 g of solution were weighed into a 25 mL volumetric flask and the volume made up to the mark with acetone. The resulting solution is transferred to a 1.5 mL GC vial for analysis. This is exactly the same calibration range as for the diffuser block study.

[10] = Indirect assay of diffuser blocks (GC/FID, pheromone remaining in the block); conditions: despecified pheromone
Experimental: Analyses were carried out using the gas chromatography (GC) technique with a flame ionization detector (FID), commonly known as GC/FID. The instrument used was the Shimadzu GC2025.® • Injection: Quantity injected: 1 μL, split 50:1, temperature: 230° C. • Separation: DB-WAX column (Agilent), length: 20 m, diameter: 180 μm, film thickness: […] • Carrier gas: Helium (He) • Analysis time: 11.50 min (not including time to return to equilibrium between each analysis) injection). • Detection: FID, temperature: 250° C., flow rates: H2: 40 mL/min, Air: 400 mL/min, Nitrogen (make-up): 30 mL/min. To obtain a representative sample, “cores” were drilled at various positions in the block and then collected. 2.5 g of gel were weighed into a 50 mL volumetric flask and the volume made up to the beginning of the neck of the flask with acetone. The flask was then placed in an ultrasonic bath for one hour until the block was dissolved (a white precipitate was obtained), then acetone was added to the mark. An aliquot of this solution was placed in a syringe fitted with a syringe filter and filtered to obtain a translucent solution. The resulting solution was transferred to a 1.5 mL GC vial for analysis. The assays were carried out using a calibration range.

[11] = DAP, 24 h after immersion of sticks
[12] = DAP, 21 days after immersion of sticks (empty tank)
[13] = F3P, 24 h after immersion of the sticks
[14] = F3P, 21 days after immersion of sticks (empty tank)

CCCCCCCCCCCCCC(=O)OC(C)C [isopropyl myristate, Propan-2-yl tetradecanoate]
mass loss of the PCDS diffuser [1]: virtually non-existent

CCCCCCCCCCCC(=O)OC [methyl laurate, methyl dodecanoate]
direct diffusion over time [2]: decreases slightly over time | ratio of molecules diffused through the sticks [3, 11]: 51 % (w/w) | ratio of molecules diffused through the sticks [3, 12]: 37 % (w/w) | ratio of molecules diffused through the sticks [3, 13]: 20 % (w/w) | ratio of molecules diffused through the sticks [3, 14]: 17.5 % (w/w) | Proportion of methyl laurate in the DAP pheromone ([4]; T = 6 j (instead of 2%)): laurate: 1.2% | Proportion of methyl laurate in the DAP pheromone ([4]; T = 22 j (instead of 2%)): laurate: 0.4% | Proportion of methyl laurate in the DAP pheromone ([4]; T = 13 d (instead of 2%)): laurate: 0.5% | quantities found in the solution [5]: very low

CCCCCCCCCCCCCC(=O)OC [methyl myristate, methyl tetradecanoate]
% of the active ingredient in the pheromone ([6]; day 7): 9.2% | % of the active ingredient in the pheromone ([6]; day 14): 8.2% | % of the active ingredient in the pheromone ([6]; day 21): 6.4% | direct diffusion, rod system compared with diffuser block [7]: better in the blocks than in the rod system | direct diffusion from the diffuser block [8]: diffuse better | % of the active ingredient in the pheromone ([9]; day 0): 11.9% | % of the active ingredient in the pheromone ([9]; day 7): 11.9% | % of the active ingredient in the pheromone ([9]; day 14): 11.9% | % of the active ingredient in the pheromone ([9]; day 21): 11.4% | % of the active ingredient in the pheromone ([10]; day 0): 12% | % of the active ingredient in the pheromone ([10]; day 7): 11.9% | % of the active ingredient in the pheromone ([10]; day 14): 11.9% | % of the active ingredient in the pheromone ([10]; day 21): 11.7% | % of the active ingredient in the pheromone ([10]; day 28): 11.7% | direct diffusion over time [2]: stable over time | ratio of molecules diffused through the sticks [3, 11]: 27 % (w/w) | ratio of molecules diffused through the sticks [3, 12]: 33.5 % (w/w) | ratio of molecules diffused through the sticks ([3]; Despecified pheromone (Core), 5 days after immersion of the sticks): 76 % (w/w) | ratio of molecules diffused through the sticks ([3]; Despecified pheromone (Core), 21 days after immersion of sticks (empty tank)): 70 % (w/w) | ratio of molecules diffused through the sticks [3, 13]: 4 % (w/w) | ratio of molecules diffused through the sticks [3, 14]: 8.7 % (w/w)
